From article PMC5843811, “^44Sc for labeling of DOTA- and NODAGA-functionalized peptides: preclinical in vitro and in vivo investigations” (EJNMMI Radiopharmacy and Chemistry, 2016)
Like-named read-outs stand apart in the source and are kept apart here.

Legend:
[1] = Biodistribution in U87MG tumor-bearing mice; type: in vivo; conditions: female, CD-1 nude (athymic nude), mouse, iv, total radioactivity, i.v. ~5 MBq (~1 nmol), mean ± SD; for tissue to tissue ratio at 0.5 h / tissue uptake at 0.5 h: 30 min p.i.; for tissue to tissue ratio at 2 h / tissue uptake at 2 h: 2 h p.i.; for tissue to tissue ratio at 5 h / tissue uptake at 5 h: 5 h p.i.
Method: Female athymic nude mice (CD-1 nude), age 5–6 weeks, were obtained from Charles River Laboratories, Sulzfeld, Germany. U87MG cells and AR42J-cells were suspended in PBS (5 × 10^6 cells in 100 μL) and subcutaneously inoculated on each shoulder. Two to three weeks later, when the tumor reached a size of about 300–500 mm^3, the mice were used for the in vivo studies.
Biodistribution studies were performed with U87MG tumor and AR42J tumor-bearing mice 2 weeks after tumor cell inoculation. ^44Sc- and ^68Ga-labeled peptides (~5 MBq, ~1 nmol per mouse) were intravenously injected in a volume of 100–200 μL. Mice were sacrificed at 30 min, 2 h and 5 h after injection (p.i.) of the ^44Sc-labeled peptides. Mice which were injected with ^68Ga-labeled peptides were sacrificed at 30 min and 2 h p.i. Selected tissues and organs were collected, weighed, and counted for radioactivity using a γ-counter (Wallac Wizard 1480, Perkin Elmer). The results were listed as a percentage of the injected activity per gram of tissue mass (% IA/g), using counts of a defined volume of the original injection solution counted at the same time. The data were analyzed for significance using a two-way ANOVA test (Graph Pad Prism 6 software, version 6.05). A p-value of < 0.05 was considered statistically significant.

U87MG tumor-bearing mice = assay: PET/CT imaging of U87MG tumor-bearing mice; type: in vivo; conditions: 3 h after i.v. injection of ~10 MBq (~1 nmol), one or two mice
Method: The energy window was set to 150–650 keV. […] All static PET scans lasted for 20 min.

[2] = U87MG tumor / blood, n=3, read-out: Tumor-to-blood ratio
[3] = U87MG tumor / kidneys, n=3, read-out: Tumor-to-kidney ratio
[4] = U87MG tumor / liver, n=3, read-out: Tumor-to-liver ratio
[5] = U87MG tumor, n=3, read-out: Biodistribution, U87MG Tumor
[6] = blood, 5 MBq per mouse, n=3, read-out: Biodistribution, Blood
[7] = bone, 5 MBq per mouse, n=3, read-out: Biodistribution, Bone
[8] = brain, 5 MBq per mouse, n=3, read-out: Biodistribution, Brain
[9] = heart, 5 MBq per mouse, n=3, read-out: Biodistribution, Heart
[10] = intestines, 5 MBq per mouse, n=3, read-out: Biodistribution, Intestines
[11] = kidneys, n=3, read-out: Biodistribution, Kidneys
[12] = liver, n=3, read-out: Biodistribution, Liver
[13] = lung, 5 MBq per mouse, n=3, read-out: Biodistribution, Lung
[14] = muscle, 5 MBq per mouse, n=3, read-out: Biodistribution, Muscle
[15] = pancreas, 5 MBq per mouse, n=3, read-out: Biodistribution, pancreas
[16] = skin, 5 MBq per mouse, n=3, read-out: Biodistribution, Skin
[17] = spleen, 5 MBq per mouse, n=3, read-out: Biodistribution, Spleen
[18] = stomach, 5 MBq per mouse, n=3, read-out: Biodistribution, Stomach

tissue to tissue ratio at 0.5 h [1, 2]: 4.82 ± 1.6
tissue to tissue ratio at 2 h [1, 2]: 40.1 ± 15.6
tissue to tissue ratio at 5 h [1, 2]: 47.2 ± 18
tissue to tissue ratio at 0.5 h [1, 3]: 1.16 ± 0.29
tissue to tissue ratio at 2 h [1, 3]: 1.77 ± 0.13
tissue to tissue ratio at 5 h [1, 3]: 1.82 ± 0.21
tissue to tissue ratio at 0.5 h [1, 4]: 0.99 ± 0.14
tissue to tissue ratio at 2 h [1, 4]: 0.61 ± 0.04
tissue to tissue ratio at 5 h [1, 4]: 2.9 ± 0.38
tissue uptake at 0.5 h [1, 5]: 4.88 ± 0.67 %ID/g
tissue uptake at 2 h [1, 5]: 2.99 ± 0.16 %ID/g
tissue uptake at 5 h [1, 5]: 3 ± 0.38 %ID/g
tissue uptake at 0.5 h [1, 6]: 1.1 ± 0.29 %ID/g
tissue uptake at 2 h [1, 6]: 0.08 ± 0.03 %ID/g
tissue uptake at 5 h [1, 6]: 0.07 ± 0.03 %ID/g
tissue uptake at 0.5 h [1, 7]: 1.17 ± 0.07 %ID/g
tissue uptake at 2 h [1, 7]: 0.56 ± 0.03 %ID/g
tissue uptake at 5 h [1, 7]: 0.52 ± 0.11 %ID/g
tissue uptake at 0.5 h [1, 8]: 0.12 ± 0.05 %ID/g
tissue uptake at 2 h [1, 8]: 0.06 ± 0.01 %ID/g
tissue uptake at 5 h [1, 8]: 0.06 ± 0.01 %ID/g
tissue uptake at 0.5 h [1, 9]: 0.96 ± 0.3 %ID/g
tissue uptake at 2 h [1, 9]: 0.31 ± 0.04 %ID/g
tissue uptake at 5 h [1, 9]: 0.3 ± 0.06 %ID/g
tissue uptake at 0.5 h [1, 10]: 1.88 ± 0.18 %ID/g
tissue uptake at 2 h [1, 10]: 1.01 ± 0.04 %ID/g
tissue uptake at 5 h [1, 10]: 1.07 ± 0.04 %ID/g
tissue uptake at 2 h ([1]; kidneys, 5 MBq per mouse, n=3, read-out: Biodistribution, Kidneys): 1.69 ± 0.09 %ID/g
tissue uptake at 0.5 h [1, 11]: 4.44 ± 0.51 %ID/g
tissue uptake at 5 h [1, 11]: < 2 %ID/g
tissue uptake at 0.5 h [1, 12]: 5.16 ± 0.99 %ID/g
tissue uptake at 2 h [1, 12]: 4.9 ± 0.13 %ID/g
tissue uptake at 5 h [1, 12]: ~1 %ID/g
tissue uptake at 0.5 h [1, 13]: 2.17 ± 0.7 %ID/g
tissue uptake at 2 h [1, 13]: 0.72 ± 0.11 %ID/g
tissue uptake at 5 h [1, 13]: 0.52 ± 0.04 %ID/g
tissue uptake at 0.5 h [1, 14]: 0.66 ± 0.26 %ID/g
tissue uptake at 5 h [1, 14]: 0.28 ± 0.04 %ID/g
tissue uptake at 2 h [1, 15]: 0.35 ± 0.03 %ID/g
tissue uptake at 5 h [1, 15]: 0.39 ± 0.02 %ID/g
tissue uptake at 0.5 h ([1]; pancreas, n=3, read-out: Biodistribution, pancreas): 0.94 ± 0.49 %ID/g
tissue uptake at 0.5 h [1, 16]: 2.28 ± 0.39 %ID/g
tissue uptake at 2 h [1, 16]: 1.23 ± 0.2 %ID/g
tissue uptake at 5 h [1, 16]: 0.97 ± 0.06 %ID/g
tissue uptake at 0.5 h [1, 17]: 3.66 ± 0.87 %ID/g
tissue uptake at 2 h [1, 17]: 2.82 ± 0.28 %ID/g
tissue uptake at 5 h [1, 17]: 1.06 ± 0.18 %ID/g
tissue uptake at 0.5 h [1, 18]: 1.78 ± 0.23 %ID/g
tissue uptake at 2 h [1, 18]: 0.84 ± 0.19 %ID/g
tissue uptake at 5 h [1, 18]: 0.72 ± 0.07 %ID/g
Compound: N=C(N)NCCC[C@@H]1NC(=O)[C@H](CCCCNC(=O)CN2CCN(CC(=O)O)CCN(CC(=O)O)CCN(CC(=O)O)CC2)NC(=O)[C@@H](Cc2ccccc2)NC(=O)[C@H](CC(=O)O)NC(=O)CNC1=O [^44Sc-DOTA-RGD, metal not drawn]
PET/CT distribution of radioactivity (in words) (U87MG tumor-bearing mice): clearly less accumulation of radioactivity in the liver than ^68Ga-DOTA-RGD
